Laboratory results reported in patent US10918641B2, “Use of MTAP inhibitors for the treatment of lung disease” (The University of North Carolina at Chapel Hill, priority 2015, dated 2021).
In brackets after ≈: the same amount, converted by molar mass. Entries after “also recorded” stand apart in the source; their conditions may differ.

Columns and labels:
MTAP = MTAP (Mus musculus, UniProt Q9CQ65)
MTA metabolism at MTAP [1] = system: MTA metabolism at MTAP
Scnn1b-Tg mice [2] = assay: Single 15 mg/kg oral gavage dose in WT and Scnn1b-Tg mice
[3] = Toxicity in in vitro (2D and 3D culture) and in vivo studies to date; conditions: all in vitro (2D and 3D culture) and in vivo studies to date
[4] = Metabolic stability in human hepatocytes and microsomes
human MTAP = target: T1, human MTAP (Homo sapiens, UniProt Q13126); assay: Inhibition of human MTAP by transition state analogue (Ki*); type: biochemical
T1 sequence (Q13126 1-283): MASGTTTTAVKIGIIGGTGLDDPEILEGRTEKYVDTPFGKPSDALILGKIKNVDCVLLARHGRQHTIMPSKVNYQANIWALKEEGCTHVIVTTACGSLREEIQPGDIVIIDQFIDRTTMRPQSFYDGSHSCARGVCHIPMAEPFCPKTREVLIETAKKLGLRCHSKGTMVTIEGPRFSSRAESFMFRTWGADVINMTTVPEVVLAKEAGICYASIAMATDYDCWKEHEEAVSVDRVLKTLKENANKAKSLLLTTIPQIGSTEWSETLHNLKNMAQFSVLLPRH

[5] = system: protein receptor and kinase panels; assay: Protein receptor and kinase panels (off-target effects); type: binding
MTA metabolism at MTAP [6] = system: MTA metabolism at MTAP; remark: listed apart in the source
Protocol: A) Serum MTA concentrations after single oral dose of various concentrations of MTDIA (range 0.6-150 mg/kg, numbers on graph represent dose in mg/kg MTDIA) as well as a 10 mg/kg dose IV.

Scnn1b-Tg mice [7] = assay: 15 mg/kg oral gavage once daily for three days in Scnn1b-Tg mice; type: in vivo, mouse
Protocol: Therefore, we repeated the above study in Scnn1b-Tg mice using 15 mg/kg MTDIA by oral gavage once daily for three days. With the longer treatment, we observed increases in serum (FIG. 8A) and BALF (FIG. 8B) MTA concentrations in treated mice relative to vehicle treated animals (n=13 and 11, respectively), similar to the changes seen with the single dose experiments.
Similar differences were observed when BALF inflammatory cells were analyzed as cell differentials rather than cell counts. These findings provide compelling evidence that MTDIA can act as an anti-inflammatory drug in a chronic airways disease model.

[8] = Stability of MTDIA in drinking water (MS method); type: physicochemical; conditions: three days, room temperature
physchem = conditions: PBS, aqueous buffer
[9] = MTDIA plasma pharmacokinetics after oral or i.p. dose in CD-1 mice; conditions: in words
[10] = Acute and seven-day repeat-dose toxicity by gavage in CD-1 mice
Protocol: In CD-1 mice, a single dose of MTDIA was administered by gavage to establish acute toxicity (300, 600 and 1000 mg/kg), or once daily for seven consecutive days (0, 600 and 1000 mg/kg/day) to determine repeat-dose toxicity. Mice were monitored for abnormalities, survival rates, histopathological changes (heart, lung, liver, kidney, spleen, small intestine and stomach were evaluated histopathologically by a board certified pathologist), clinical chemistry and complete blood count (CBC) analysis.

MTA metabolism at MTAP [11] = assay: MTDIA in drinking water of WT mice, serum and BALF MTA; type: in vivo
Protocol: The effect of a range of MTDIA concentrations in drinking water on serum and BALF MTA concentrations in WT mice is explored using protocols similar to those described above, except that MTDIA is delivered in drinking water rather than oral gavage. In preliminary experiments, we calculated that 75 μg/mL of MTDIA in drinking water would deliver a dose of 15 mg/kg per day that we utilized in our single dose experiments (based on estimates of a 25 g mouse drinking […] water per day), and we examined WT mice treated with this dose as well as half of this dose (37.5 μg/mL) relative to mice drinking untreated water. […] Once this dose is established, this dose is tested over three days in our Scnn1b-Tg and CF/Scnn1b-Tg mice to ensure that we observe similar effects in these models.

[12] = 15 mg/kg once daily, three days

Sequence of MTAP (Q9CQ65 whole entry): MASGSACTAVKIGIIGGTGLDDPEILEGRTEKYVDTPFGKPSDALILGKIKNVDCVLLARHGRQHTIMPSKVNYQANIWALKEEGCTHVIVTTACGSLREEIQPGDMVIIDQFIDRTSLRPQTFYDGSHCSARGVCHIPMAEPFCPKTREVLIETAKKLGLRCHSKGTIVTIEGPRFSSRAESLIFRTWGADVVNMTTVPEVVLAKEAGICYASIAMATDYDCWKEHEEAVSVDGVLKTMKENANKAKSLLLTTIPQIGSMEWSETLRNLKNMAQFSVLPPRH

In the case of `CSC[C@H]1CN(Cc2c[nH]c3c(N)ncnc23)C[C@@H]1O` [MTDIA, (3R,4S)-1-[(9-deazaadenin-9-yl)methyl]-3-hydroxy-4-(methylthiomethyl)pyrrolidine], the “Duration of inhibition of MTAP activity in vivo” value (MTAP; an oral or i.p. dose) is reported as > 24 h, the “Time for MTAP catalytic activity in mouse serum to return to normal” value (MTAP; single oral dose 15 mg/kg) is reported as ≤ 36 h and the “Time for which catalytic activity of MTAP in mouse serum is completely inhibited” value (MTAP; single oral dose 15 mg/kg) is reported as 24 h. The “Urinary MTA” value (MTA metabolism at MTAP [1]; 15 mg/kg, mice) was “approximately 30 μM”, the “Increase of plasma MTA levels” value (MTA metabolism at MTAP [1]; 15 mg/kg, mice, after 30 min) was > 100 fold and the “Decrease in polyamine concentrations” value (MTA metabolism at MTAP [1]; an oral or i.p. dose) was ~2 fold. The “MTA accumulation in plasma over baseline levels” value (MTA metabolism at MTAP [1]; an oral or i.p. dose) was > 100 fold, the BALF inflammatory markers (Scnn1b-Tg mice [2]; after a single dose) was “did not observe any changes” and the “Serum MTA concentrations” value (Scnn1b-Tg mice [2]; single 15 mg/kg oral gavage, 24 hours, WT and Scnn1b-Tg mice, 15 mg/kg) was “increase; also recorded: increases serum MTA”. The Toxicity observed [3] was “No significant toxicity”, the Time metabolically stable ([4]; in vitro, human hepatocytes and microsomes) was “over 4 hr” and the “Metabolic stability in microsomes and hepatocytes” value ([4]; in words) was “metabolically stable”. For the same compound, the Ki (human MTAP) was 0.086 nM, the “Affinity for MTAP” value (human MTAP; in words) was “picomolar affinity” and the “Off-target effects in protein receptor and kinase panels” value [5] was “minimal off-target effects”. For the same compound, the “Oral dose yielding maximal response in serum MTA concentrations” value (MTA metabolism at MTAP [6]; previous experiments, as stated in Example 7) was 15 mg/kg, the “Oral dose with maximum effect on serum MTA concentrations” value (MTA metabolism at MTAP [6]; single oral dose range 0.6-150 mg/kg (FIG. 7A legend)) was 30 mg/kg and the “BALF MTA concentrations vs. vehicle” value (Scnn1b-Tg mice [7]; [12]) was “increases”. For the same compound, the “Free concentrations of spermine and spermidine in serum or BALF” value (Scnn1b-Tg mice [7]; [12]) was “did not observe large changes; also recorded: minimal changes”, the “Serum MTA concentrations vs. vehicle” value (Scnn1b-Tg mice [7]; [12]) was “increases; also recorded: increased serum MTA concentrations” and the “Bronchus-associated lymphoid tissue (BALT), lung histology” value (Scnn1b-Tg mice [7]; three days of MTDIA treatment) was “meaningfully reduced; also recorded: greatly reduced”. The “Enlarged activated macrophage phenotype (BALF cytospins)” value (Scnn1b-Tg mice [7]; three days of MTDIA treatment) was “appears to be reduced; also recorded: resolve to a more WT appearance”, the “BALF macrophage cell counts” value (Scnn1b-Tg mice [7]; three days oral MTDIA) was “corresponding increase” and the “BALF eosinophil cell count” value (Scnn1b-Tg mice [7]; three days oral MTDIA, vehicle 14.2+13.5, p<0.001) was 2.2+3.2 ×10^3 cells/ml. For the same compound, the “BALF neutrophil cell count” value (Scnn1b-Tg mice [7]; three days oral MTDIA, vehicle 32.0+16.9, p<0.001) was 11.5+8.2 ×10^3 cells/ml, the “Stability in drinking water” value [8] was “stable” and the solubility (physchem) was 156 mM (≈ 45.8 mg/mL). For the same compound, the Oral availability [9] was “orally available”, the “LOAEL (Lowest-Observed-Adverse-Effect level)” value ([10]; CD-1 mice, gavage) was 600 mg/kg/day and the Histopathological findings ([10]; mouse, in vivo) was “No histopathological findings were detected”. For the same compound, the “Serum MTA concentrations vs. control” value (MTA metabolism at MTAP [11]; 37.5 μg/mL in drinking water) was “more than two orders of magnitude higher than control; also recorded: orders of magnitude increases”, the “Serum MTA concentrations vs. control” value (MTA metabolism at MTAP [11]; 75 μg/mL in drinking water) was “more than two orders of magnitude higher than control; also recorded: orders of magnitude increases” and the “BALF MTA vs. control” value (MTA metabolism at MTAP [11]; 37.5 or 75 μg/mL in drinking water) was “less dramatic increases; also recorded: increased BALF MTA concentrations”.
